Measurements as given in patent US3974153A, “7-Hydrocarbonoxy imino-acetamido-3-carbamoyloxy methylceph-3-em-4 carboxylic acids” (Glaxo Laboratories Limited, priority 1971, dated 1976).
Structures can show the parent of a compound that is named as a salt.

Columns and labels:
[1] = exposure of crystalline forms to water vapour; type: physicochemical; settings: for water content after exposure to moisture (Karl-Fischer): 75% relative humidity, 3 days, product is Form IV
Protocol: The resulting material contains about 4% water (i.e. about 1 mole) and is believed to be a hydrate. This change is reversible, so that Form IV salt may be converted to Form I salt by, for example, drying in vacuo over a desiccating agent such as phosphorus pentoxide.
If crystalline Form III material is treated in this way, the crystal habit of the product appears to be retained throughout the sequence of transformations. Form III salt may also be converted to Form I salt by heating a suspension of Form III material in nearly boiling methanol; this transformation […] in loss of crystallinity where crystalline Form III material is used.
Sample of Form I and Form III sodium 3-carbamoyloxymethyl-7-[2-(fur-2-yl)-2-methoxyiminoacetamido]ceph-3-em-4-carboxylate (syn isomer), prepared according to Method (iii) of Example 7 and Example 9 respectively, were exposed to moisture (75% relative humidity) for 3 days to give the title compound. The IR and NMR spectra of the products conformed to those of an authentic sample. Karl-Fischer water analysis gave, respectively, 4.0 and 3.85% (1 mole H2 O is equivalent to 3.9%).

Klebsiella species = assay: antibacterial activity; type: cell-based; settings: in vitro and in vivo tests
mammalian esterases = assay: resistance to esterases; type: in vitro ADME
Staphylococcus aureus = assay: antibacterial activity; type: cell-based; settings: in vitro and in vivo tests
Streptococcus vilidans = assay: antibacterial activity; type: cell-based; settings: in vitro and in vivo tests
Neisseria species = assay: antibacterial activity; type: cell-based; settings: in vitro and in vivo tests
Neisseria meningitidis = assay: in vitro antibacterial activity; type: cell-based
Staphylococci = assay: antibacterial activity; type: cell-based; settings: in vitro and in vivo tests
Proteus species = assay: antibacterial activity; type: cell-based; settings: in vitro and in vivo tests
[2] = stability in the body and urinary recovery, animals; type: in vivo
[3] = serum levels following parenteral administration, humans; type: in vivo; settings: human subjects
Enterobacter species = assay: antibacterial activity; type: cell-based; settings: in vitro and in vivo tests
β-lactamases = assay: stability to β-lactamases produced by gram-negative organisms; type: cell-based; settings: evidenced by in vitro activity against β-lactamase-producing strains of Escherichia, Enterobacter and Klebsiella species
[4] = serum levels following parenteral administration, animals; type: in vivo; settings: animal subjects
Streptococcus pyogenes = assay: antibacterial activity; type: cell-based; settings: in vitro and in vivo tests
Escherichia coli = assay: antibacterial activity; type: cell-based; settings: in vitro and in vivo tests
Neisseria gonorrhoeae = assay: in vitro antibacterial activity; type: cell-based
[5] = test system: gram-positive and gram-negative microorganisms; assay: antibacterial activity against gram-positive and gram-negative microorganisms; type: cell-based
Diplococcus pneumoniae = assay: antibacterial activity; type: cell-based; settings: in vitro and in vivo tests
serum binding = type: in vitro ADME
Clostridia species = assay: antibacterial activity; type: cell-based; settings: in vitro and in vivo tests
[6] = stability in the body and urinary recovery, humans; type: in vivo, human
Haemophilus influenzae = assay: antibacterial activity; type: cell-based
solubility of base salts = type: physicochemical; settings: e.g. alkali metal salts
[7] = distribution in the body on administration by injection; type: in vivo

CO/N=C(\C(=O)N[C@@H]1C(=O)N2C(C(=O)O)=C(COC(N)=O)CS[C@H]12)c1ccco1 [Form II, Form II Sodium (6R,7R)-3-Carbamoyloxymethyl-7-[2-(fur-2-yl)-2-methoxyiminoacetamido]ceph-3-em-4-carboxylate (syn isomer)]
water absorption on exposure to water vapour (hygroscopicity) ([1]; e.g. 75% relative humidity): does not absorb further water

CO/N=C(\C(=O)N[C@@H]1C(=O)N2C(C(=O)O)=C(COC(N)=O)CS[C@H]12)c1ccco1 [compound (II), (6R,7R)-3-carbamoyloxymethyl-7-[2-(fur-2-yl)-2-methoxyiminoacetamido]ceph-3-em-4-carboxylic acid (syn isomer)]
activity against Klebsiella species (Klebsiella species): active | resistance to the action of mammalian esterases (mammalian esterases): resistant | activity against Staphylococcus aureus (Staphylococcus aureus): active | activity against Streptococcus vilidans (Streptococcus vilidans): active | activity against Neisseria species (Neisseria species): active | in vitro activity against strains of Neisseria meningitidis (Neisseria meningitidis): particularly high in vitro activity | activity against Staphylococci (Staphylococci): active | activity against Proteus species (Proteus species): active | recovery of unchanged compound in the urine [2]: high levels | stability in the body [2]: stable | serum levels [3]: high serum levels | activity against Enterobacter species (Enterobacter species): active | stability to β-lactamases produced by a range of gram-negative organisms (β-lactamases): very high stability | serum levels [4]: high serum levels | activity against Streptococcus pyogenes (Streptococcus pyogenes): active | activity against Escherichia coli (Escherichia coli): active | in vitro activity against strains of Neisseria gonorrhoeae (Neisseria gonorrhoeae): particularly high in vitro activity | activity against gram-positive and gram-negative microorganisms ([5]; in vitro and in vivo tests): active | in vitro activity at high inoculum levels ([5]; inoculum levels as high as 10^7 organisms/ml): good in vitro activity | activity against Diplococcus pneumoniae (Diplococcus pneumoniae): active | serum binding (serum binding): low serum binding | activity against Clostridia species (Clostridia species): active | recovery of unchanged compound in the urine [6]: high levels | stability in the body [6]: stable | in vitro activity against strains of Haemophilus influenzae (Haemophilus influenzae; in vitro): particularly high in vitro activity | activity against Haemophilus influenzae (Haemophilus influenzae; in vitro and in vivo tests): active

CO/N=C(\C(=O)N[C@@H]1C(=O)N2C(C(=O)O)=C(COC(N)=O)CS[C@H]12)c1ccco1 [Form III, Form III Sodium (6R,7R)-3-Carbamoyloxymethyl-7-[2-(fur-2-yl)-2-methoxyiminoacetamido]ceph-3-em-4-carboxylate (syn isomer)]
water content after exposure to moisture (Karl-Fischer) [1]: 3.85% | change of form on exposure to water vapour ([1]; e.g. 75% relative humidity): loses all the dioxan present and forms Form IV material | water absorption on exposure to water vapour (hygroscopicity) ([1]; e.g. 75% relative humidity): hygroscopic

CO/N=C(\C(=O)N[C@@H]1C(=O)N2C(C(=O)O)=C(COC(N)=O)CS[C@H]12)c1ccco1 [Form I, Form I Sodium (6R,7R)-3-Carbamoyloxymethyl-7-[2-(fur-2-yl)-2-methoxyiminoacetamido]ceph-3-em-4-carboylate (syn isomer)]
water content after exposure to moisture (Karl-Fischer) [1]: 4.0% | change of form on exposure to water vapour ([1]; e.g. 75% relative humidity): undergo a change of crystalline form leading generally to Form IV salt | water absorption on exposure to water vapour (hygroscopicity) ([1]; e.g. 75% relative humidity): absorb further water | water content of material resulting from exposure to water vapour ([1]; e.g. 75% relative humidity, material generally Form IV): about 4%

CO/N=C(\C(=O)N[C@@H]1C(=O)N2C(C(=O)O)=C(COC(N)=O)CS[C@H]12)c1ccco1 [sodium salt, sodium (6R,7R)-3-carbamoyloxymethyl-7-[2-(fur-2-yl)-2-methoxyiminoacetamido]ceph-3-em-4-carboxylate (syn isomer)]
solubility (solubility of base salts): highly soluble | distribution in the body [7]: rapid distribution
